Source: patent publication US10517853B2, “Methods for treating epilepsy” (PTC Therapeutics, Inc., priority 2015, dated 2019)

Tests used:
[1] = tested on: SCN1A nonsense mutation W192X (UAG premature stop); test: Luciferase reporter readthrough assay, SCN1A nonsense mutation W192X construct in 293H cells; format: cell-based; conditions: 293H cells transfected with construct SCN1A-Trp192x; decreasing concentrations starting at 3 uM; 24 hours; FIG. 4
From the text: (§1) Luciferase reporter constructs were generated to evaluate readthrough activity of compounds at premature stop codons present in SCN1A and CDKL5 mRNA sequences. FIG. 1 is a schematic of the reporter construct used to monitor readthrough activity of SCN1A nonsense mutation W192X (UAG premature stop). FIG. 2 is a schematic of the reporter construct used to monitor readthrough activity of CDKL5 nonsense mutation R59X (UGA premature stop). FIG. 3 is a schematic of the reporter construct used to monitor readthrough activity of CDKL5 nonsense mutation R550X (UGA premature stop). In each of the constructs, luciferase reporter is flanked by a 3XHA epitope tag at the amino-terminus and a FLAG epitope tag at the C-terminus. An intron from the TPI gene was inserted in the luciferase gene. Sequences from SCN1A (see FIG. 1) and CDKL5 (see FIGS. 2 and 3) harboring disease-associated nonsense mutations were introduced in-frame with the reporter sequence such that readthrough at the premature stop codon results in the production of a functional luciferase protein.
(§2) 293H cells were transfected with either construct SCN1A-Trp192x (FIG. 1), construct CDKL5-R59X (FIG. 2), or construct CDKL5-R550X (FIG. 3). […] The ability of ataluren to promote readthrough at the premature stop codon in each of the constructs was measured and reported as the relative light units (y-axis). […]

[2] = tested on: CDKL5 nonsense mutation R59X (UGA premature stop); test: Luciferase reporter readthrough assay, CDKL5 nonsense mutation R59X construct in 293H cells; format: cell-based; conditions: 293H cells transfected with construct CDKL5-R59X; decreasing concentrations starting at 3 uM; 24 hours; FIG. 5
From the text: as §1, §2

[3] = tested on: CDKL5 nonsense mutation R550X (UGA premature stop); test: Luciferase reporter readthrough assay, CDKL5 nonsense mutation R550X construct in 293H cells; format: cell-based; conditions: 293H cells transfected with construct CDKL5-R550X; decreasing concentrations starting at 3 uM; 24 hours; FIG. 5
From the text: as §1, §2

[4] = target: CYP2C9 (Homo sapiens, UniProt P11712); test: CYP2C9 inhibition; format: in vitro ADME
CYP2C9, sequence (P11712 whole entry): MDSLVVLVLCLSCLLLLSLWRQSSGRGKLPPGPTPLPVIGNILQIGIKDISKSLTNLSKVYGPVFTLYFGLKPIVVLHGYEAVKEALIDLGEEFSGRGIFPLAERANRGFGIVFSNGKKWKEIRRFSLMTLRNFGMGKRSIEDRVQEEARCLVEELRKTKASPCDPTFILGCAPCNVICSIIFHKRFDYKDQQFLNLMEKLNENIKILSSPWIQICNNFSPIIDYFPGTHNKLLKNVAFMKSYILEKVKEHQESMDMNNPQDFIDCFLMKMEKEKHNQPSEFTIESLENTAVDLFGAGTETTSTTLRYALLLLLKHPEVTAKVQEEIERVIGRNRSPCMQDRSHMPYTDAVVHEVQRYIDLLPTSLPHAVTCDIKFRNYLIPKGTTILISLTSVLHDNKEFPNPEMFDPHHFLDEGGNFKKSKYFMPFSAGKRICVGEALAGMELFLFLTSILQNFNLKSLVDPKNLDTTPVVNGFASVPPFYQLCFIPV

[5] = target: T1, CYP2C8 (Homo sapiens, UniProt P10632); test: CYP2C8 inhibition; format: in vitro ADME
T1 sequence (P10632 1-490): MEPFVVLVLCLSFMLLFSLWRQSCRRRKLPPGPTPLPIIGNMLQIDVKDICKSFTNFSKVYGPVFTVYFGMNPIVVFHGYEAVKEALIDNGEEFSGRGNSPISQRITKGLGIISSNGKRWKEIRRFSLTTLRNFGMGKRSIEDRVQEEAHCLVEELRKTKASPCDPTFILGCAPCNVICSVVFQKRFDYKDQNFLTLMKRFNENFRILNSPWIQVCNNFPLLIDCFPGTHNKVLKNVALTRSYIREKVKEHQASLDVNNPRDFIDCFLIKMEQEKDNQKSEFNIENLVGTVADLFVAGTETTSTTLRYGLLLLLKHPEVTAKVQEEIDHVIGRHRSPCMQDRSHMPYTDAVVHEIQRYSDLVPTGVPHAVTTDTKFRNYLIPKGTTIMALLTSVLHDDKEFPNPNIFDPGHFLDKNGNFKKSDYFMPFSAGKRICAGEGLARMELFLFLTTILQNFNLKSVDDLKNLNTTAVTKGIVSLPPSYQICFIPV

inhibition of CYP2C9 [4]: weak inhibitor | inhibition of CYP2C8 [5]: weak inhibitor
SMILES: O=C(O)c1cccc(-c2noc(-c3ccccc3F)n2)c1 [ataluren, 3-[5-(2-fluoro-phenyl)-[1,2,4]oxadiazol-3-yl]-benzoic acid]
readthrough at the premature stop codon (luciferase, relative light units; fold increase compared to DMSO) [1]: promotes concentration-dependent readthrough | readthrough at the premature stop codon (luciferase, relative light units; fold increase compared to DMSO) [2]: promotes concentration-dependent readthrough | readthrough at the premature stop codon (luciferase, relative light units; fold increase compared to DMSO) [3]: promotes concentration-dependent readthrough
